Laboratory results reported in US3937838A, “Orally active bronchospasmolytic compounds and their preparation” (priority 1966, dated 1976).
“Also recorded” adds a separate entry of the source. Read-outs that look alike come from different tables or passages of the source.

Key:
[1] = test system: adrenergic receptors; conditions: cited from earlier work
[2] = test system: right auricle from the guinea pig; experiment: Dual preparation test in vitro, effect on auricle (Example 5c); conditions: slow infusion, FIGS. 2-4; for cardiac stimulation in relation to bronchodilator effect: both preparations in same bath
Source text: [This procedure is more fully described below in Example 5 (b)].
FIG. 2 illustrates the effect of epinephrine (EPE) and terbutaline on spirally cut trachea and right auricle from the guinea pig. Both preparations are dissected out from the same animal and run under identical experimental conditions;
Both preparations are dissected out from the same animal, and run under identical experimental conditions;
Both preparations are dissected out from the same animal and run under identical experimental conditions;
The relation between the heart stimulatory effect and bronchodilator effect was studied in vitro on auricle-trachea-preparation from the guinea pig in order to compare the effect on the heart and the effect on the bronchial muscle under identical experimental conditions. Both spontaneously bearing auricle and spirally-cut trachea were placed in the same bath in Krebs solution. Both preparations were taken from the same animal.
The compound to be tested was slowly infused into the bathing solution and the tension was measured for each of the auricle and trachael preparations.
In carrying out this dual preparation test, epinephrine was used as a reference. […] Infusion of epinephrine was made over a period of ten minutes. After washing and recovery, the test solution was infused in the same manner and the effect of the test compound was compared with the effect of epinephrine.
Referring more specifically to FIG. 2, the upper portion of each chart thereof represents the tension continuously recorded of the auricle preparation (shaded area 1 for the effect of epinephrine on the auricle, ref. no. 2 for the effect of terbutaline infused at a rate of 0.2 μg/min on the auricle, and ref. no. 3 for the effect of terbutaline infused at a rate of 0.375μg/min on the auricle).

[3] = test system: bronchial asthma; experiment: Clinical study in asthmatic patients (Example 6); format: in vivo, human
Experimental: All the patients were hospitalized for severe bronchial asthma. Before the patients were selected for the trial, spirometry was performed before and after isoprenaline inhalations to make sure that their obstruction was at least partly reversible by bronchodilating drugs. The tests were performed when the patients were in a relatively steady state of moderate asthmatic discomfort. Every morning during the trial control measurements of forced expiratory volume in one second (FEV1.0) were made. These values had to be less than 70% of the predicted normal value taking in consideration sex, age and heights. All the patients were under treatment of different drugs for their asthma. Other bronchodilating drugs were withdrawn at least 6 hours before the start of the measurements. Most of the patients were treated with steroids, antibiotics and expectorants before the start of the trial. This regimen was continued unchanged during the trial period.
Twenty-four took part in the study, 10 male and 14 female. Average age was 51 years (range 15-71 years), mean body weight 64 kg (range 44-88 kg.) and height 166 cm (range 150-187 cm).
The trial was performed as a double blind study during three consecutive days with the patients serving as their own control. […] The order of treatment was randomized according to the principle of Latin squares.
Lung function tests were made immediately before the administration of the tablets and after 1, 2, 3, 5 and 7 hours. FEV1.0 was measured using a Vitalograph spirometer. The highest value of three measurements on each occasion was used in the calculations. All the patients had been trained to perform the tests the day before the start of the trial. After 3 and 7 hours, the patients were questioned for side effects. The same, specially trained, nurse assisted throughout the whole investigation.
The "Student's" t-test was used for statistical evaluation of the results. The degree of significance for the differences is given as almost significant (p<0.05^x) significant (p<0.01^xx) and highly significant (p<0.001^xxx).

[4] = test system: isolated guinea pig heart; experiment: Effect on isolated heart from guinea pig, Langendorff (Example 16); conditions: per se
Experimental: The isolated guinea pig heart was perfused according to Langendorff. The method used is described by Anden et al. [Acta Pharmacol. et Toxicol. 21, 247, (1964)]. Contractions in the heart were recorded by a force displacement transducer and a Grass polygraph model 5. The recovery of the heart was tested with (-) epinephrine between every dose of the substance tested. Terbutaline was used as reference.

[5] = test system: mice; experiment: Toxicity study in mice (Example 18); format: in vivo; conditions: mouse, in vivo, po
Experimental: (§1) The toxicity was studied in mice (NMRI, male, 18-28 g) 24 hours after i.v. and oral administration. The animals were observed during five days. No further deaths occurred.

[6] = Toxicity study in mice (Example 18); format: in vivo; conditions: mouse, in vivo, read-out: LD 50 + Standard error
Experimental: as §1

[7] = test system: bronchoconstriction by histamine aerosol; experiment: Protecting effect against histamine aerosol in guinea pigs (Example 15); format: in vivo, guinea pig; conditions: Cavia porcellus, read-out: ED50 (protecting 50 percent of the animals for more than 4 minutes)
Source text: Male guinea pigs (200--300 g) were used. Bronchoconstriction was produced by letting the animals inhale a histamine aerosol.

[8] = test system: guinea pig trachea; experiment: Bronchospasmolytic effect in vitro (Example 13); conditions: per se
Experimental: The trachea from a guinea pig was dissected out and spirally cut. It was mounted in a water-jacketed bath (37°C.) in Krebs solution and aerated with oxygen (95%) and carbon dioxide (5%). Pilocarpine (2 μg/ml) was added. The load was adjusted to about 2 g and relaxations in the trachea were recorded by means of a Grass force displacement transducer and a Grass polygraph model 5 (see Example 5 above). The cumulative method was used (-)-Epinephrine was used as reference. The comparisons presented in Table 7 are based on ED50 -values.

[9] = test system: sphincter of Oddi (choledochoduodenal sphincter); experiment: Effect on sphincter of Oddi (Example 5e); format: in vivo, cat; conditions: anesthetized cats; for duodenal pressure / motility / heart rate: concurrent with sphincter effect; for common bile duct pressure / sphincter relaxation: i.v., 1 μg/kg terbutaline in FIG. 7, FIG. 8
Experimental: The effect of terbutaline on the choledochoduodenal sphincter of young, healthy cats was studied. Young animals weighing at least 2.0 kg were used. After being deprived of food but not water for 24 hours, they were anesthetized with pentobarbitol (40 mg/kg i.p.). The terminal portion of a common bile duct was isolated and cannulated toward the duodenum. The hepatic part of the bile duct was drained to prevent distention. The pressure was continuously recorded by the open tip technique. Details of the experimental set up have been published by Liedberg and Halabi [Acta. Chir. Scand. 136 (1970) page 208.] Heart rate was recorded on all experiments and blood pressure by arterial cannulation in some.
Referring to the upper curve of FIGS. 7 and 8, the heart rate is continuously recorded. Concurrent records are made in the middle curve and lower curve of the pressures measured respectively in the common bile duct and in the lower duodenum.
As a control in this test, the animal was also treated with 0.5 international units per kg of cholecystokinin (CCK).
In a second test of the effect of terbutaline and isoprenaline on the sphincter (see FIG. 8), the duodenal motility was measured without being affected by CCK.

[10] = test system: isolated rabbit heart; experiment: Effect on isolated heart, Langendorff preparation (Example 5d); conditions: injection; FIG. 5
Experimental: The effect of the compound of the present invention was also studied on isolated rabbit heart (Langendorff preparation) the method used as described by Anden et al. (Acta Pharmacol. et Toxicol., 21 (1964) page 247). In this procedure, the isolated heart is mounted in a Krebs solution and the test compound is injected into it. Measurements are continuously recorded of the rate and force of contraction.
The tests using epinephrine establish a standard of comparison to evaluate subsequent test compounds in the same preparation.

## CC(C)NCC(O)c1cc(O)cc(O)c1 (stereo not shown) [orciprenaline, 1-(3',5'-dihydroxyphenyl)-2-(isopropylamino)-ethanol, reference compound]
[1]; background, versus previously used bronchodilators
  bronchodilator potency: less potency than previously used bronchodilators
[2]
  cardiac stimulation in relation to bronchodilator effect: strong cardiac stimulants in relation to their bronchodilator effect
[3]; oral single dose
  time of maximal response (FEV1.0): 2 h
[3]; oral, terbutaline 5.0 mg, orciprenaline 20 mg, FIG. 9
  increase of FEV1.0: clearcut increase of the spirometric values

## CC(C)(C)NCC(O)c1cc(OC(=O)C(C)(C)C)cc(OC(=O)C(C)(C)C)c1 (stereo not shown) [KWD2085]
[4]
  direct heart effect relative to terbutaline: much less direct heart effect
[5]
  oral absorption in comparison with terbutaline: improved oral absorption in comparison with terbutaline
[6]; iv
  LD50 at 24 h: 23 ± 2 mg/kg
[6]; po
  LD50 at 24 h: 2200 mg/kg
[7]; 0.5 h, oral, 30 minutes before histamine
  ED50: 0.24 mg/kg
[7]; ip, 0.25 h, i.p., 15 minutes before histamine
  ED50: 0.13 mg/kg
[8]
  bronchospasmolytic effect in vitro relative to terbutaline: weaker bronchospasmolytic effect in vitro than terbutaline

## cholecystokinin [reference compound]
[9]
  duodenal pressure / motility: markedly stimulated the duodenum
  common bile duct pressure / sphincter relaxation: relaxed the sphincter

## CNC(C)C(O)c1ccccc1 (stereo not shown) [Ephedrine, 1-phenyl-2-(methylamino)propanol]
[1]; background
  cardiovascular side effects: palpitations and tachycardia
[1]; background, oral
  CNS side effects: anxiety and sleeping disturbances

## CC(C)NCC(O)c1ccc(O)c(O)c1 (stereo not shown) [isoprenaline, 1-(3',4'-dihydroxyphenyl)-2-(isopropylamino)-ethanol, reference compound]
[1]; background
  adrenergic receptors stimulated: stimulates β1 and β2 -receptors equally
  duration of bronchodilator activity: relatively short-lived
[1]
  cardiovascular side effects: cardiovascular stimulation, especially tachycardia
[2]
  cardiac stimulation in relation to bronchodilator effect: strong cardiac stimulants in relation to their bronchodilator effect
[9]
  duodenal pressure / motility: inhibited duodenal motility
  heart rate: marked tachycardia
  common bile duct pressure / sphincter relaxation: reduces common bile duct pressure
[9]; listed as Isoprenaline
  duodenal pressure / motility: differed markedly from terbutaline in its effect on heart rate and intestinal activity
  heart rate: differed markedly from terbutaline in its effect on heart rate and intestinal activity

## CNCC(O)c1ccc(O)c(O)c1 (stereo not shown) [epinephrine, 1-(3',4'-dihydroxyphenyl)-2-(methylamino)-ethanol]
[10]
  effect on rate and force of isolated heart: increase in the heart rate; also recorded: increase in the force of contraction; also recorded: readily observable
[1]; background
  adrenergic receptors stimulated: stimulates α- and β1 - as well as β2 -receptors
  cardiovascular side effects: tachycardia, increased cardiac output and sometimes an increase in blood pressure
  duration of bronchodilator activity: relatively short-lived
[2]
  cardiac stimulation in relation to bronchodilator effect: affecting both the auricle and tracheal preparations over the concentration range tested
[2]; listed as Epinephrine
  cardiac stimulation in relation to bronchodilator effect: bronchodilation and heart muscle stimulation in the same concentration range
[2]; 0.375 μg/min where stated
  effect on auricle (tension): nearly doubled the maximum tension of the auricle
